Experimental data as given in patent publication US12139556B2, “Insect neuropeptides 6” (Solasta Bio Limited, priority 2022, dated 2024).

Key:
Type in all cases: in vivo
[1] = system: Myzus persicae; assay: Leaf dip assay (IRAC susceptibility test method 019), mortality assessment; conditions: unformulated or with Silwet-408 adjuvant; mortality assessed at 72, 96 and 120 hours; FIGS. 6-8
Description: The assay was carried out based on IRAC susceptibility test method 019 (irac-online.org/methods/aphids-adultnymphs/).
Fill a small 4 cm wide 3 cm high dish with a 1% agar treatment solution of the active chemical or control (ensuring 1 cm gap between the agar and the lid) and leave to set. Dip a 2.5 cm leaf disc into 3 ml of treatment solution allowing the treatment to coat the leaf. Leave the disc to dry for 1 hour and place onto the set agar. Place insects (M. persicae aphids) onto each of the leaf discs. Each unit is sealed with a close-fitting, ventilated lid. Place the agar dishes in a small plastic tray lined with moist tissue paper and ensure the water trays in the bottom of the incubator are filled with clean water and place within the incubator. An assessment of mortality is made at 72, 96 and 120 hours. Leaf dip assays were performed with SB-P-65, and compared to a negative control vehicle and a current commercial insecticide Spirotetramat. The activity of SB-P-65 is shown in FIGS. 6-8; SB-P-65 has good activity whilst being eco-friendly and targeted to specific pests unlike broad spectrum chemical insecticides such as Spirotetramat.

[2] = system: bees; assay: Bee oral toxicity test adapted from OECD Test No. 247 (Bumblebee, Acute Oral Toxicity Test); conditions: % survival after 96 hours of application; FIG. 10
Description: Bee oral testing protocol was carried out adapted from OECD Test No. 247: Bumblebee, Acute Oral Toxicity Test. The toxicity of SB-P-65 was compared with a negative control of sucrose or vehicle, and with a current commercial insecticide Imidacloprid.

[3] = system: Aphis fabae; assay: Field trials (PGRO) on vining peas, naturally infested
Description: (§1) Field trials for peptide SB-P-65, unformulated, against various insects were conducted by third-party organisations PGRO and AgriScience.

[4] = system: Aphis gossypii; assay: Field trials (AgriScience) on cotton and melon, naturally infested
Description: as §1

[5] = system: Myzus persicae; assay: Field trials by third-party organisations
Description: as §1

[6] = versus Stealth/Aphox, Teppeki/Aphox, Profil Extra, Hallmark Zeon

Structure (SMILES): CC(C)[C@H](NC(=O)[C@@H](NC(=O)[C@H](CCCCN)NC(=O)[C@H](CCC(N)=O)NC(=O)[C@@H](N)CCCNC(=N)N)[C@@H](C)O)C(=O)N[C@@H](Cc1ccccc1)C(=O)N[C@@H](CO)C(=O)N[C@@H](CO)C(=O)N[C@@H](Cc1c[nH]c2ccccc12)C(=O)NCC(N)=O [SB-P-65, [Hy]-RQKTVFSSWG-[NH2]]
- activity against Myzus persicae (mortality) in leaf dip assay [1]: good activity
- toxicity to bees (oral), compared to Imidacloprid [2]: far lower toxicity
- efficacy in field trials against Aphis fabae ([3]; unformulated, vining peas, real-world conditions, FIGS. 11, 14): good efficacy
- efficacy relative to commercial insecticides, Aphis fabae field trials [3, 6]: comparably to commercial insecticides
- efficacy in field trials against Aphis gossypii ([4]; unformulated, cotton, melon, real-world conditions, FIGS. 12, 13): good efficacy
- efficacy relative to commercial insecticides, Aphis gossypii field trials [4, 6]: comparably to commercial insecticides
- efficacy in field trials against Myzus persicae ([5]; unformulated, real-world conditions): good efficacy
- efficacy relative to commercial insecticides, Myzus persicae field trials [5, 6]: comparably to commercial insecticides
